In US4206215A, “Antimicrobial bis-[4-(substituted-amino)-1-pyridinium]alkanes” (Sterling Drug Inc., priority 1977, dated 1980):

Tests used:
Ps. aerug. MGH-2 = assay: In vitro antibacterial activity, MIC (modified Autotiter method); assay type: cell-based, Pseudomonas aeruginosa; settings: 18-20 hours at 37° C.; for MIC: Pseudomonas aeruginosa, 20 h, read-out: MIC Ps. aerug. MGH-2
Method: (§1) The antibacterial and antifungal activity of representative examples of the compounds of Formula I was determined using a modification of the Autotiter method described by Goss, et al. Applied Microbiology 16 (9) 1,414-1,416 (1968) in which a 1,000 mcg./ml. solution of the test compound is prepared. To the first cup of the Autotray is added 0.1 ml. of the test solution. Activation of the Autotiter initiates a sequence of operations by which 0.05 ml. of the test compound solution is withdrawn from the cup by a Microtiter transfer loop and diluted in 0.05 ml. of sterile water. Following this operation, 0.05 ml. of inoculated double-strength semisynthetic medium (glucose) is added automatically to each cup. The overall operation results in final drug concentrations ranging from 500 to 0.06 mcg./ml. in twofold decrements. […] The compounds were thus tested as solutions against a variety of gram positive and gram negative bacteria including Staphylococcus aureus, Proteus mirabilis, Escherichia coli, Klebsiella pneumoniae, Pseudomonas aeruginosa, Streptococcus pyogenes, and against such fungi as Aspergillus niger, Candida albicans and Trichophyton mentagrophytes.

A. niger 16404 = assay: In vitro antifungal activity, MIC (modified Autotiter method); assay type: cell-based, Aspergillus niger; settings: 18-20 hours at 37° C.; for MIC: Aspergillus niger, 16404, 20 h, read-out: MIC A. niger 16404
Method: as §1

S. pyogen. C203 = assay: In vitro antibacterial activity, MIC (modified Autotiter method); assay type: cell-based, Streptococcus pyogenes; settings: 18-20 hours at 37° C.; for MIC: Streptococcus pyogenes, 20 h, read-out: MIC S. pyogen. C203
Method: as §1

S. Aureus Smith = assay: as above; assay type: cell-based, Staphylococcus aureus; settings: 18-20 hours at 37° C.; for MIC: Staphylococcus aureus, 20 h, read-out: MIC S. Aureus Smith
Method: as §1

C. albicans 10231 = assay: In vitro antifungal activity, MIC (modified Autotiter method); assay type: cell-based, Candida albicans; settings: 18-20 hours at 37° C.; for MIC: Candida albicans, 10231, 20 h, read-out: MIC C. albicans 10231
Method: as §1

C. albicans Wisc. = assay: as above; assay type: cell-based, Candida albicans; settings: 18-20 hours at 37° C.; for MIC: Candida albicans, 20 h, read-out: MIC C. albicans Wisc.
Method: as §1

P. mirab. MGH-1 = assay: In vitro antibacterial activity, MIC (modified Autotiter method); assay type: cell-based, Proteus mirabilis; settings: 18-20 hours at 37° C.; for MIC: Proteus mirabilis, 20 h, read-out: MIC P. mirab. MGH-1
Method: as §1

K. pneum. 39645 = assay: as above; assay type: cell-based, Klebsiella pneumoniae; settings: 18-20 hours at 37° C.; for MIC: Klebsiella pneumoniae, 20 h, read-out: MIC K. pneum. 39645
Method: as §1

E. coli 100/B22 = assay: as above; assay type: cell-based, Escherichia coli; settings: 18-20 hours at 37° C.; for MIC: Escherichia coli, 100/B22, 20 h, read-out: MIC E. coli 100/B22
Method: as §1

E. coli Vogel = assay: as above; assay type: cell-based, Escherichia coli; settings: 18-20 hours at 37° C.; for MIC: Escherichia coli, 20 h, read-out: MIC E. coli Vogel
Method: as §1

E. coli AB1932-1 = assay: as above; assay type: cell-based, Escherichia coli; settings: 18-20 hours at 37° C.; for MIC: Escherichia coli, AB19321, 20 h, read-out: MIC E. coli AB1932-1
Method: as §1

T. menta. 9129 = assay: In vitro antifungal activity, MIC (modified Autotiter method); assay type: cell-based, Trichophyton mentagrophytes; settings: 18-20 hours at 37° C.; for MIC: Trichophyton mentagrophytes, 20 h, read-out: MIC T. menta. 9129
Method: as §1

| SMILES | MIC (Ps. aerug. MGH-2) [µg/mL] | MIC (A. niger 16404) [µg/mL] | MIC (S. pyogen. C203) [µg/mL] | MIC (S. Aureus Smith) [µg/mL] | MIC (C. albicans 10231) [µg/mL] | MIC (C. albicans Wisc.) [µg/mL] | MIC (P. mirab. MGH-1) [µg/mL] | MIC (K. pneum. 39645) [µg/mL] | MIC (E. coli 100/B22) [µg/mL] | MIC (E. coli Vogel) [µg/mL] | MIC (E. coli AB1932-1) [µg/mL] | MIC (T. menta. 9129) [µg/mL] | also measured |
| --- | --- | --- | --- | --- | --- | --- | --- | --- | --- | --- | --- | --- | --- |
| CCCCCCCCNc1cc[n+](CCCCCCCCCCCCCC[n+]2ccc(NCCCCCCCC)cc2)cc1 [Example 46, 1,14-bis-[4-(octylamino)-1-pyridinium]tetradecane dibromide] | 3.9 | 15.6 | 1.95 | 1 | 7.8 | 7.8 | 3.9 | 7.8 | 3.9 | 7.8 | 3.9 | 1.95 |  |
| CCCCCCCCCNc1cc[n+](CCCCCC[n+]2ccc(NCCCCCCCCC)cc2)cc1 [Example 47, 1,6-bis-[4-(nonylamino)-1-pyridinium]-hexane dibromide] | 15.6 |  | 1 | 0.5 | 3.9 | 1.95 | 3.9 | 3.9 | 1.95 | 1 | 1.95 | 1 | MIC A. niger 16404 (A. niger 16404): 15.6 µg/mL |
| CCCCCCCCCNc1cc[n+](CCCCCC[n+]2ccc(NCCCCCCCCC)cc2)cc1 [Example 48] |  |  |  |  |  |  |  |  |  |  |  |  | MIC Ps. aerug. MGH-2 (Ps. aerug. MGH-2): 15.6 µg/mL; MIC A. niger 16404 (A. niger 16404): 3.9 µg/mL; MIC S. pyogen. C203 (S. pyogen. C203): 1.0 µg/mL; MIC S. Aureus Smith (S. Aureus Smith): 1.0 µg/mL; MIC C. albicans 10231 (C. albicans 10231): 1.95 µg/mL; MIC C. albicans Wisc. (C. albicans Wisc.): 1.95 µg/mL; MIC P. mirab. MGH-1 (P. mirab. MGH-1): 7.8 µg/mL; MIC K. pneum. 39645 (K. pneum. 39645): 3.9 µg/mL; MIC E. coli 100/B22 (E. coli 100/B22): 1.95 µg/mL; MIC E. coli Vogel (E. coli Vogel): 1.95 µg/mL; MIC E. coli AB1932-1 (E. coli AB1932-1): 1.95 µg/mL; MIC T. menta. 9129 (T. menta. 9129): 1.0 µg/mL |
| CCCCCCCCCNc1cc[n+](CCCCCCC[n+]2ccc(NCCCCCCCCC)cc2)cc1 [Example 49, 1,7-bis-[4-(nonylamino)-1-pyridinium]heptane dibromide] | 15.6 | 7.8 | 1 | 0.5 | 1.95 | 1.95 | 3.9 | 1.95 | 1.95 | 1 | 1.95 | 1 |  |
| CCCCCCCCCNc1cc[n+](CCCCCCCCC[n+]2ccc(NCCCCCCCCC)cc2)cc1 [Example 50, 1,9-bis-[4-(nonylamino)-1-pyridinium]nonane dibromide] | 3.9 | 7.8 | 1.95 | 1.95 | 3.9 | 3.9 | 3.9 | 3.9 | 1.95 | 1.95 | 3.9 | 1.95 |  |
| CCCCCCCCCNc1cc[n+](CCCCCCCCCC[n+]2ccc(NCCCCCCCCC)cc2)cc1 [Example 51, 1,10-bis-[4-(nonylamino)-1-pyridinium]decane dibromide] | 3.9 | 7.8 | 1.95 | 1.95 | 3.9 | 3.9 | 3.9 | 3.9 | 3.9 | 1.95 | 3.9 | 1.95 |  |
| CCCCCCCCCNc1cc[n+](CCCCCCCCCCCC[n+]2ccc(NCCCCCCCCC)cc2)cc1 [Example 52, 1,12-bis-[4-(nonylamino)1-pyridinium]dodecane dibromide] | 3.9 | 15.6 | 1.95 | 1.95 | 7.8 | 7.8 | 3.9 | 3.9 | 3.9 | 3.9 | 7.8 | 1.95 |  |
| CCCCCCCNc1cc[n+](CCCCCC[n+]2ccc(NCCCCCCC)cc2)cc1 [Example 62C, 1,6-bis-[4-(heptylamino)-1-pyridinium]hexane dichloride] |  |  |  |  |  |  |  |  |  |  |  |  | MIC Ps. aerug. MGH-2 (Ps. aerug. MGH-2): > 62.5 µg/mL; MIC A. niger 16404 (A. niger 16404): 7.8 µg/mL; MIC S. pyogen. C203 (S. pyogen. C203): 0.98 µg/mL; MIC S. Aureus Smith (S. Aureus Smith): 0.24 µg/mL; MIC C. albicans 10231 (C. albicans 10231): 3.9 µg/mL; MIC C. albicans Wisc. (C. albicans Wisc.): 3.9 µg/mL; MIC P. mirab. MGH-1 (P. mirab. MGH-1): > 125 µg/mL; MIC K. pneum. 39645 (K. pneum. 39645): 3.9 µg/mL; MIC E. coli 100/B22 (E. coli 100/B22): 1.95 µg/mL; MIC E. coli Vogel (E. coli Vogel): 3.9 µg/mL; MIC E. coli AB1932-1 (E. coli AB1932-1): 1.95 µg/mL; MIC T. menta. 9129 (T. menta. 9129): 3.9 µg/mL |
| CCCCCCCCCCNc1cc[n+](CCCCCC[n+]2ccc(NCCCCCCCCCC)cc2)cc1 [Example 64B, 1,6-bis-[4-(decylamino)-1-pyridinium]hexane dibromide] | 7.8 | 7.8 | 1 | 1 | 1.95 | 3.9 | 1.95 | 3.9 | 7.8 | 1.95 | 1.95 | 1 |  |
| CCCCCCCCCCNc1cc[n+](CCCCCCC[n+]2ccc(NCCCCCCCCCC)cc2)cc1 [Example 65, 1,7-bis-[4-(decylamino)-1-pyridinium]heptane dibromide] | 7.8 | 7.8 | 1 | 1 | 15.6 | 15.6 | 3.9 | 7.8 | 3.9 | 3.9 | 3.9 | 1.95 |  |
| CCCCCCCCCCNc1cc[n+](CCCCCCCC[n+]2ccc(NCCCCCCCCCC)cc2)cc1 [Example 66, 1,8-bis-[4-(decylamino)-1-pyridinium]octane dibromide] | 7.8 | 15.6 | 1.95 | 1 | 7.8 | 15.6 | 7.8 | 3.9 | 3.9 | 1.95 | 7.8 | 1.95 |  |
| CCCCCCCCCCNc1cc[n+](CCCCCCCCC[n+]2ccc(NCCCCCCCCCC)cc2)cc1 [Example 67, 1,9-bis-[4-(decylamino)-1-pyridinium]nonane dibromide] | 7.8 | 31.3 | 1.95 | 1 | 31.3 | 15.6 | 7.8 | 15.6 | 3.9 | 1.95 | 7.8 | 3.9 |  |
| CCCCCCCCCCNc1cc[n+](CCCCCCCCCC[n+]2ccc(NCCCCCCCCCC)cc2)cc1 [Example 68, 1,10-bis-[4-(decylamino)-1-pyridinium]decane dibromide] | 15.6 | 15.6 | 3.9 | 1.95 | 15.6 | 15.6 | 7.8 | 31.3 | 15.6 | 7.8 | 15.6 | 3.9 |  |
| CCCCCCCCCCNc1cc[n+](CCCCCCCCCCCC[n+]2ccc(NCCCCCCCCCC)cc2)cc1 [Example 69, 1,12-bis-[4-(decylamino)-1-pyridinium]dodecane dibromide] | 15.6 | 15.6 | 3.9 | 1.95 | 15.6 | 15.6 | 15.6 | 31.3 | 15.6 | 7.8 | 31.3 | 3.9 |  |
| CCCCCCCCCCCCNc1cc[n+](CCCCCC[n+]2ccc(NCCCCCCCCCCCC)cc2)cc1 [Example 70, 1,6-bis-[4-(dodecylamino)-1-pyridinium]hexane dibromide] | > 62.5 | 62.5 | 7.8 | 7.8 | 15.6 | 31.3 | > 62.5 | > 62.5 | 62.5 | 31.3 | > 62.5 | 7.8 |  |
